Test results from patent publication US6908935B2, “Calcium receptor modulating agents” (Amgen Inc., priority 2002, dated 2005).

molecular target: T1, human parathyroid cell Ca^2+ receptor (hPCaR) (Homo sapiens, UniProt P41180); assay: [Ca2+]i measurement with fluo-3 in HEK 293 4.0-7 cells stably transfected with hPCaR; assay type: cell-based; details: fluo-3 fluorescence (485/530 nm), effect on [Ca^2+]i
T1 construct: expressed in transfected cells
T1 sequence (P41180 20-1078): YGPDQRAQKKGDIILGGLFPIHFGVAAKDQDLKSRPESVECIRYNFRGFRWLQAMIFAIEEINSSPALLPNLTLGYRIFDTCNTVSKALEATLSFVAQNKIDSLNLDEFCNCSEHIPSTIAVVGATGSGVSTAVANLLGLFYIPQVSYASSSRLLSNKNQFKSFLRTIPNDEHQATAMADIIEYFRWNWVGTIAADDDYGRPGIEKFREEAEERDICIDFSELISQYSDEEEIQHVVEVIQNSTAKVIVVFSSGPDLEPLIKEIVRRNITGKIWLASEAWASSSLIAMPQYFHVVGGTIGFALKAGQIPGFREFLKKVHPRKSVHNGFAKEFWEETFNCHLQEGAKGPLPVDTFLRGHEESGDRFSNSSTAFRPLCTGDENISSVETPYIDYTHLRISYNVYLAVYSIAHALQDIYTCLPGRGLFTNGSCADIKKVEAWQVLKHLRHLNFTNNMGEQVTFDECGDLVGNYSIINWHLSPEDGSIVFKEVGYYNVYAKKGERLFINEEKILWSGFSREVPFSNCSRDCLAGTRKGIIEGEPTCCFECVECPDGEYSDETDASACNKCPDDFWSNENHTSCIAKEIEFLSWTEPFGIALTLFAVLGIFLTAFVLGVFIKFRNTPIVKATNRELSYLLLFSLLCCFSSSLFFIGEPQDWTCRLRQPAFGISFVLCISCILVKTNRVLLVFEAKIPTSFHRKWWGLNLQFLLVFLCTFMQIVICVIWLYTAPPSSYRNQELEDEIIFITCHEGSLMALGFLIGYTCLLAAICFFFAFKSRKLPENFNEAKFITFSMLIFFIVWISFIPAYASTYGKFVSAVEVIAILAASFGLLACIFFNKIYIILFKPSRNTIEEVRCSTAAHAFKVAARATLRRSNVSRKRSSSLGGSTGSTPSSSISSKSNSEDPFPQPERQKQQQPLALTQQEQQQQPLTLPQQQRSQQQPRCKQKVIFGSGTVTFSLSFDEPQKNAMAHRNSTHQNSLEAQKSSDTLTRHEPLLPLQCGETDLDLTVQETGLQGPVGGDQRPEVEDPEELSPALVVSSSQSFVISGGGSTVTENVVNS
Summary of the method: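 Cytosolic [Ca2+] was read as fluo-3 fluorescence (ex 485/em 530 nm) after compound addition to washed cells. Cells were hPCaR-transfected HEK 293 clone 7, dye-loaded 30 min at 37 °C with 2 μM fluo-3 acetoxymethyl ester in HEPES-buffered saline pH 7.45 containing 1 mM CaCl2 and 0.5% BSA.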

EC50, ≤ 10 µM:
Cc1noc(-c2cccc(CN[C@H](C)c3ccccc3)c2)n1 [Example 453, (1R)-N-((3-(3-methyl-1,2,4-oxadiazol-5-yl)phenyl)methyl)-1-phenylethanamine]
C[C@@H](NCc1cccc(-c2cncc(C(N)=O)c2)c1)c1cccc2ccccc12 [Example 460, 5-(3-((((1R)-1-(1-naphthalenyl)ethyl)amino)methyl)phenyl)-3-pyridinecarboxamide]
C[C@@H](NCc1cccc(-c2cncc(C(N)=O)c2)c1)c1ccc2ccccc2c1 [Example 461, 5-(3-((((1R)-1-(2-naphthalenyl)ethyl)amino)methyl)phenyl)-3-pyridinecarboxamide]
COc1ccc(-c2cc(CN[C@H](C)c3ccccc3)ccc2F)cc1 [Example 465, (1R)-N-((6-fluoro-4′-(methyloxy)-1,1′-biphenyl-3-yl)methyl)-1-phenylethanamine]
COc1ccc(CN[C@H](C)c2cccc3ccccc23)cc1-c1ccc(C(=O)N(C)C)cc1 [N,N-dimethyl-2′-(methyloxy)-5′-((((1R)-1-(1-naphthalenyl)ethyl)amino)methyl)-1,1′-biphenyl-4-carboxamide]
COc1cccc([C@@H](C)NCc2ccc(OC)c(-c3ccc(C(=O)N(C)C)cc3)c2)c1 [N,N-dimethyl-2′-(methyloxy)-5′-((((1R)-1-(3-(methyloxy)phenyl)ethyl)amino)methyl)-1,1′-biphenyl-4-carboxamide]
COc1ccc(CN[C@H](C)c2ccccc2)cc1-c1ccc(C(=O)N(C)C)cc1 [N,N-dimethyl-2′-(methyloxy)-5′-((((1R)-1-phenylethyl)amino)methyl)-1,1′-biphenyl-4-carboxamide]
COc1ccc(CN[C@H](C)c2ccccc2)cc1-c1ccc(N(C)C)nc1 [N,N-dimethyl-5-(2-(methyloxy)-5-((((1R)-1-phenylethyl)amino)methyl)phenyl)-2-pyridinamine]
CC(=O)Nc1cccc(-c2cccc(CN[C@H](C)c3cccc4ccccc34)c2)c1 [N-(3′-((((1R)-1-(1-naphthalenyl)ethyl)amino)methyl)-1,1′-biphenyl-3-yl)acetamide]
COc1cccc([C@@H](C)NCc2cccc(-c3cccc(NC(C)=O)c3)c2)c1 [N-(3′-((((1R)-1-(3-(methyloxy)phenyl)ethyl)amino)methyl)-1,1′-biphenyl-3-yl)acetamide]
CC(=O)Nc1cccc(-c2cccc(CN[C@H](C)c3ccccc3)c2)c1 [N-(3′-((((1R)-1-phenylethyl)amino)methyl)-1,1′-biphenyl-3-yl)acetamide]
COc1ccc(-c2cc(CN[C@H](C)c3cccc4ccccc34)ccc2NS(C)(=O)=O)cc1 [N-(4′-(methyloxy)-5-((((1R)-1-(1-naphthalenyl)ethyl)amino)methyl)-1,1′-biphenyl-2-yl)methanesulfonamide]
COc1ccc(-c2cc(CN[C@H](C)c3cccc(OC)c3)ccc2NS(C)(=O)=O)cc1 [N-(4′-(methyloxy)-5-((((1R)-1-(3-(methyloxy)phenyl)ethyl)amino)methyl)-1,1′-biphenyl-2-yl)methanesulfonamide]
COc1ccc(-c2cc(CN[C@H](C)c3ccccc3)ccc2NS(C)(=O)=O)cc1 [N-(4′-(methyloxy)-5-((((1R)-1-phenylethyl)amino)methyl)-1,1′-biphenyl-2-yl)methanesulfonamide]
CC(=O)Nc1ccc(-c2cccc(CN[C@H](C)c3cccc4ccccc34)c2)cn1 [N-(5-(3-((((1R)-1-(1-naphthalenyl)ethyl)amino)methyl)phenyl)-2-pyridinyl)acetamide]
COc1cccc([C@@H](C)NCc2cccc(-c3ccc(NC(C)=O)nc3)c2)c1 [N-(5-(3-((((1R)-1-(3-(methyloxy)phenyl)ethyl)amino)methyl)phenyl)-2-pyridinyl)acetamide]
CCN(CC)CCCOc1ccc(-c2cc(CN[C@H](C)c3cccc4ccccc34)ccc2OC)cn1 [N-((3-(6-((3-(diethylamino)propyl)oxy)-3-pyridinyl)-4-(methyloxy)phenyl)methyl)-N-((1R)-1-(1-naphthalenyl)ethyl)amine]
CCN(CC)CCCOc1ccc(-c2cc(CN[C@H](C)c3cccc(OC)c3)ccc2OC)cn1 [N-((3-(6-((3-(diethylamino)propyl)oxy)-3-pyridinyl)-4-(methyloxy)phenyl)methyl)-N-((1R)-1-(3-(methyloxy)phenyl)ethyl)amine]
COc1ccc(CNC(C)c2cccc(OC(F)(F)F)c2)cc1-c1ccc(C(F)(F)F)cc1 (stereo not drawn) [N-((6-(methyloxy)-4′-(trifluoromethyl)-1,1′-biphenyl-3-yl)methyl)-1-(3-((trifluoromethyl)oxy)phenyl)ethanamine]
COc1ccc(CNC(C)c2cccc(C)c2)cc1-c1ccc(C(F)(F)F)cc1 (stereo not drawn) [N-((6-(methyloxy)-4′-(trifluoromethyl)-1,1′-biphenyl-3-yl)methyl)-1-(3-methylphenyl)ethanamine]
CCNC(=O)Nc1ccc(CN[C@H](C)c2cccc3ccccc23)cc1-c1ccc(OC)cc1 [N-ethyl-N′-(4′-(methyloxy)-5-((((1R)-1-(1-naphthalenyl)ethyl)amino)methyl)-1,1′-biphenyl-2-yl)urea]
CCNC(=O)Nc1ccc(CN[C@H](C)c2cccc(OC)c2)cc1-c1ccc(OC)cc1 [N-ethyl-N′-(4′-(methyloxy)-5-((((1R)-1-(3-(methyloxy)phenyl)ethyl)amino)methyl)-1,1′-biphenyl-2-yl)urea]
CCNC(=O)Nc1ccc(CN[C@H](C)c2ccccc2)cc1-c1ccc(OC)cc1 [N-ethyl-N′-(4′-(methyloxy)-5-((((1R)-1-phenylethyl)amino)methyl)-1,1′-biphenyl-2-yl)urea]
CCOC(=O)c1ccc(-c2cc(CN[C@H](C)c3cccc4ccccc34)ccc2OC)cc1 [ethyl 2′-(methyloxy)-5′-((((1R)-1-(1-naphthalenyl)ethyl)amino)methyl)-1,1′-biphenyl-4-carboxylate]
CCOC(=O)c1ccc(-c2cc(CN[C@H](C)c3cccc(OC)c3)ccc2OC)cc1 [ethyl 2′-(methyloxy)-5′-((((1R)-1-(3-(methyloxy)phenyl)ethyl)amino)methyl)-1,1′-biphenyl-4-carboxylate]
CCOC(=O)c1ccc(-c2cc(CN[C@H](C)c3ccccc3)ccc2OC)cc1 [ethyl 2′-(methyloxy)-5′-((((1R)-1-phenylethyl)amino)methyl)-1,1′-biphenyl-4-carboxylate]
CCOC(=O)N1CCC(c2cc(CN[C@H](C)c3cccc4ccccc34)ccc2OC)CC1 [ethyl 4-(2-(methyloxy)-5-((((1R)-1-(1-naphthalenyl)ethyl)amino)methyl)phenyl)-1-piperidinecarboxylate]
